One test has as its target T1, human PTP-PEST (Homo sapiens, UniProt Q05209).
T1 sequence (Q05209 1-780): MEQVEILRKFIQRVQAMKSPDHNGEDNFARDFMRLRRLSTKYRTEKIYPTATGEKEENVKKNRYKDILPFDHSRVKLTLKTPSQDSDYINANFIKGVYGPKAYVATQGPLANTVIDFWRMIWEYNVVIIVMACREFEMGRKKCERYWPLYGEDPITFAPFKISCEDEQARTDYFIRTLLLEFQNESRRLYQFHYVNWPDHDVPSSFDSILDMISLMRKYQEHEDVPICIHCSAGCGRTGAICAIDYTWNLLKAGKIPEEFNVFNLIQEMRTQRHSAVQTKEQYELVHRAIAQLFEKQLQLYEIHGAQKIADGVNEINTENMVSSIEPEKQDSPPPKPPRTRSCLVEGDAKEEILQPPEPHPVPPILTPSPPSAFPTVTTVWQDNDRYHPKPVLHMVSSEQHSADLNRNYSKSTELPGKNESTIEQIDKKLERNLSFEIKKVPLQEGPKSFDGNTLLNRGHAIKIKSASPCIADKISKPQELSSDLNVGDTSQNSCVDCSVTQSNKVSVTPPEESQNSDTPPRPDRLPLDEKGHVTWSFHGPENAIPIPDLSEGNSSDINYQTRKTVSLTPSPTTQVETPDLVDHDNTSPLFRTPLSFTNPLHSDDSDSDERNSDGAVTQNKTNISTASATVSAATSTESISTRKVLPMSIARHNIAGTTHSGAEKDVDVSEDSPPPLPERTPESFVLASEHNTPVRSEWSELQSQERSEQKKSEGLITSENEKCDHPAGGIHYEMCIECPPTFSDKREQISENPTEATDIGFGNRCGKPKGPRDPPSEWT
The test is classed as biochemical.

In another test the target is YopH (Yersinia enterocolitica, UniProt P15273). The test is classed as biochemical. The note with it: read-out: Ki against YopH.
The test system of test [1] is Mycobacterium tuberculosis PtpB. In kind it is biochemical. The note with it: read-out: IC50 PtpB.
The target in test [2] is Mycobacterium tuberculosis PtpA (Mycobacterium tuberculosis, UniProt P9WIA1).
The next test deals with T2, human LYP (Homo sapiens, UniProt Q9Y2R2).
T2 sequence (Q9Y2R2 1-807): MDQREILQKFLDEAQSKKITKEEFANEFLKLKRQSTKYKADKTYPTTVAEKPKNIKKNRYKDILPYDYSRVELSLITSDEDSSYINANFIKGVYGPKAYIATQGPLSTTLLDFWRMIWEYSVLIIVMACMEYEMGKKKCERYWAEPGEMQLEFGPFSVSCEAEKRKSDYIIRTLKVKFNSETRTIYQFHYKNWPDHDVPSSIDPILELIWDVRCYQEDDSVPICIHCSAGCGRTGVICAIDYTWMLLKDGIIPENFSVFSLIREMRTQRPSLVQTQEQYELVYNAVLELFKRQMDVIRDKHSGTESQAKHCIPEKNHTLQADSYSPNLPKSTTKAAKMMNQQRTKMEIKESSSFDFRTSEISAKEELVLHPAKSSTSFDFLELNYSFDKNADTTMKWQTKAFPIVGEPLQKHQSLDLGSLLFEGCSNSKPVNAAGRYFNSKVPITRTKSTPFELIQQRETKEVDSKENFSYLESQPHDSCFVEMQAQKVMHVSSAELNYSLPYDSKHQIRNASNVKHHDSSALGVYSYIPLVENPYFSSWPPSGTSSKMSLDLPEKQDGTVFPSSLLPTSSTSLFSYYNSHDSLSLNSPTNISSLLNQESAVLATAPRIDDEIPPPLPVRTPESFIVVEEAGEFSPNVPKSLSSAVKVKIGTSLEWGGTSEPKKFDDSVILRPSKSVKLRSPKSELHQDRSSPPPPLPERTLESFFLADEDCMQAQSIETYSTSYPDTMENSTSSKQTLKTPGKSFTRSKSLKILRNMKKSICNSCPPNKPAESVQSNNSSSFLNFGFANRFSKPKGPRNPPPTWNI
In kind it is biochemical.

A further test addresses T3, human PTP1B (Homo sapiens, UniProt P18031).
T3 sequence (P18031 1-435): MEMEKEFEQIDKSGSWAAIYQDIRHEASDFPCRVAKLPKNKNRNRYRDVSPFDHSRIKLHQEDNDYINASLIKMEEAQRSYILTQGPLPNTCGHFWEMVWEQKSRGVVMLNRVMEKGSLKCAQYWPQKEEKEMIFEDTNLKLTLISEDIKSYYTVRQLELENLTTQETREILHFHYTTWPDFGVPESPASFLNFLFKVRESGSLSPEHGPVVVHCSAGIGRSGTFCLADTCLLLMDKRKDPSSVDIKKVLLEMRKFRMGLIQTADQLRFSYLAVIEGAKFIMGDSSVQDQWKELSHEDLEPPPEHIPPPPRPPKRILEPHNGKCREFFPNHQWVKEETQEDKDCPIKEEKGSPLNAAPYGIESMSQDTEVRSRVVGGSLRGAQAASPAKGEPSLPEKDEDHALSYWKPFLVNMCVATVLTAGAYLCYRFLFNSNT
In kind it is biochemical.

This is an account of results in publication PMC4641580 (ACS Medicinal Chemistry Letters, 2015).

Mycobacterium tuberculosis PtpA, sequence (P9WIA1 whole entry): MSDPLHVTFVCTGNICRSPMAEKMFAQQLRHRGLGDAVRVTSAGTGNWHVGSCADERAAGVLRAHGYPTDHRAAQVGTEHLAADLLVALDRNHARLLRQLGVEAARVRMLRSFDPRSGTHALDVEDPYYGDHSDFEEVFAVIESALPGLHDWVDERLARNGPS
YopH, sequence (P15273 whole entry, looked up): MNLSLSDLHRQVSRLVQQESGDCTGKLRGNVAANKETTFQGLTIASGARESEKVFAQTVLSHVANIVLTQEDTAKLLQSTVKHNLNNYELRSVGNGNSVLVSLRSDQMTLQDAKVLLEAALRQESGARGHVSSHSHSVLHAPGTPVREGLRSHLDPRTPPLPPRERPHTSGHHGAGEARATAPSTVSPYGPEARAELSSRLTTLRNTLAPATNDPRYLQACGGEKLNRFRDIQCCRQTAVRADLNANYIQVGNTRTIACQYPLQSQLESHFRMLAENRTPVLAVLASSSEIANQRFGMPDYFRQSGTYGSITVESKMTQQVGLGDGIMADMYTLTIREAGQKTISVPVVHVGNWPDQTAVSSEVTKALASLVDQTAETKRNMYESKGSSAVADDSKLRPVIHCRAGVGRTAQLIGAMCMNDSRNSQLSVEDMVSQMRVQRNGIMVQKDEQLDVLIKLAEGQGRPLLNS

What is called IC50 is the concentration that inhibits the measured activity by half. Broadly, the Ki is a dissociation constant, usually derived from enzyme kinetics or from competition with a known ligand. For the compound `[O]=[V]([S]c1cccc[n+]1[O-])[S]c1cccc[n+]1[O-]` [Compound 3, Bis(pyridine-2-thiol N-oxide) oxovanadium(IV)], on human PTP-PEST, the “SI (IC50PTP/IC50YopH) PTP–PEST” value was determined as 142.4. For the same compound, the IC50 on human PTP-PEST (read-out: IC50 PTP–PEST) turned out to be 41.3 ± 3.19 µM; in test [1], 52.6 ± 1.56 µM; in test [2] (read-out: IC50 PtpA), 9.12 ± 0.26 µM; on human LYP (read-out: IC50 LYP) it was 28.3 ± 1.71 µM; at human PTP1B (read-out: IC50 PTP1B), 0.78 ± 0.02 µM. Besides, the Ki at YopH was determined as 0.19 µM. Also, the “SI (IC50PTP/IC50YopH) PtpA” value in test [2] was found to be 31.5. In addition, at human LYP, the “SI (IC50PTP/IC50YopH) LYP” value came out at 97.6. At human PTP1B, the “SI (IC50PTP/IC50YopH) PTP1B” value is 2.7.
